Measurements from patent US12459951B2, “Compounds that interact with RAS superfamily proteins for treatment of cancers, inflammatory diseases, rasopathies, and fibrotic disease” (SHY Therapeutics, LLC, priority 2022, dated 2025).

How the values were obtained:
[1] = test system: Smad2/Smad3 phosphorylation; assay: Phospho-Smad2/3 Inhibition Assay (western blot), Panc-1; type: cell-based, human; conditions: at 10 μM, Panc-1 pancreatic cancer cell line; starred symbols = activation
Method in brief: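 Panc-1 cells (KRas G12D), starved overnight in 0.5% FBS, treated 3 h at 37° C with compound at 10 μM final (0.3% DMSO) or serial dilutions for IC50, then stimulated with 10 ng/ml TGF-b1 for 1 h. Phospho-Smad2 (Ser465/467) and phospho-Smad3 (Ser423/425) detected by western blot.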

[2] = Kinetic Solubility Assay in pH 7.4 Buffer + 2% DMSO; type: physicochemical; conditions: phosphate-buffered saline pH 7.4 with 2% DMSO, aqueous buffer, kinetic from dmso stock, 25° C., two hours
Method: Biological Example 9: Kinetic Solubility
Kinetic solubility assay in pH 7.4 Buffer+2% DMSO (“Kinetic Solubility Assay) was performed according to the following protocol: Briefly, using a 20 mM stock solution of the tested compounds in 100% DMSO, dilutions were prepared to a theoretical concentration of 400 μM in duplicates in phosphate-buffered saline pH 7.4 (138 mM NaCl, 2.7 mM KCl, 10 mM K-phosphate) with 2% final DMSO. The tested compounds dilutions in PBS were further allowed to equilibrate at 25° C. on a thermostatic shaker for two hours and then filtered through HTS filter plates using a vacuum manifold. The filtrates of the test compounds were diluted 2-fold with acetonitrile with 2% DMSO before measuring.
In parallel, using a 20 mM stock solution of the tested compounds in 100% DMSO, dilutions were prepared to theoretical concentrations of 0 μM (blank), 10 μM, 25 μM, 50 μM, 100 μM, and 200 μM in 50% acetonitrile/PBS with 2% final DMSO to generate calibration curves. Ondansetron was used as a reference compound to control proper assay performance. 200 μL of each sample was transferred to a 96-well plate and measured in the 230-550 nm range with a 5 nm step.
The concentrations of compounds in PBS filtrate are calculated using a dedicated Microsoft Excel calculation script. Proper absorbance wavelengths for calculations are selected for each compound manually based on absorbance maximums (absolute absorbance unit values for the minimum and maximum concentration points within the 0-3 OD range). Each final dataset is visually evaluated by the operator, and goodness of fit (R2) is calculated for each calibration curve. The effective range of this assay is approximately 2-400 μM and the compounds returning values close to the upper limit of the range may have higher actual solubility (e.g., 5′-deoxy-5-fluorouridine).
Table 8 show kinetic solubility data for selected compounds tested in the Kinetic Solubility assay described above.

TNF-alpha = TNF-alpha Quantification Assay (ELISA), LPS-stimulated RAW 264.7; type: cell-based; conditions: Mus musculus, RAW264.7; at 10 μM; read-out: TNFα: % inh.
MAPK p38 phosphorylation = assay: MAPK p38 Activation Assay (western blot), Panc-1; type: cell-based, human; conditions: at 10 μM, Panc-1 pancreatic cancer cell line; starred symbols = activation
Method in brief: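 Panc-1 cells (KRas G12D) were treated with compound for 6 h at 37 °C, at 10 μM or as serial dilutions for IC50, with 0.3% DMSO. Method 1 used overnight serum-starved cells (0.5% FBS) stimulated with 1.5 ng/ml EGF for 15 min; Method 2 used unstimulated cells in 10% FBS. Phospho-p38 (Thr180/Tyr182) was detected by western blot.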

solubility at 2 h [2]	SMILES	% inh of Smad2/3 phosphorylation in Panc-1 [1]	inhibition at 10 µM (TNF-alpha)	% inh of MAPK p38 in Panc-1 (MAPK p38 phosphorylation)
< 10 µM	COc1cc(Nc2nc(-c3nccn3C)nn3cc(-c4ccn(C)n4)c(C)c23)ncc1C1CC1 [Compound 238, N-(5-Cyclopropyl-4-methoxypyridin-2-yl)-5-methyl-2-(1-methyl-1H-imidazol-2-yl)-6-(1-methyl-1H-pyrazol-3-yl)pyrrolo[2,1-f][1,2,4]triazin-4-amine]	0 (0 = 0% inhibition)	50 to 74%	
< 10 µM	COc1cc(Nc2nc(-c3nccn3C)nn3cc(-c4ccn(C)n4)c(C)c23)ncc1C [Compound 235, N-(4-Methoxy-5-methylpyridin-2-yl)-5-methyl-2-(1-methyl-1H-imidazol-2-yl)-6-(1-methyl-1H-pyrazol-3-yl)pyrrolo[2,1-f][1,2,4]triazin-4-amine]	0 (0 = 0% inhibition)	0%	
< 10 µM	COc1ccc(Nc2nc(-c3nccn3C)nn3cc(-c4ccn(C)n4)c(C)c23)nc1 [Compound 224, N-(5-Methoxypyridin-2-yl)-5-methyl-2-(1-methyl-1H-imidazol-2-yl)-6-(1-methyl-1H-pyrazol-3-yl)pyrrolo[2,1-f][1,2,4]triazin-4-amine]	0 (0 = 0% inhibition)	1 to 24%	
10 to 30 µM	Cc1c(-c2ccn(C)n2)cn2nc(-c3nccn3C)nc(Nc3cc4c(cn3)CCO4)c12 [Compound 221, N-(5-Methyl-2-(1-methyl-1H-imidazol-2-yl)-6-(1-methyl-1H-pyrazol-3-yl)pyrrolo[2,1-f][1,2,4]triazin-4-yl)-2,3-dihydrofuro[3,2-c]pyridin-6-amine]	A (A = 1-25% inhibition)	0%	E (E = 1-30% inhibition)
< 10 µM	Cc1ccc(Nc2nc(-c3nccn3C)nn3cc(-c4ccn(C)n4)c(C)c23)nc1 [Compound 226, 5-Methyl-2-(1-methyl-1H-imidazol-2-yl)-6-(1-methyl-1H-pyrazol-3-yl)-N-(5-methylpyridin-2-yl)pyrrolo[2,1-f][1,2,4]triazin-4-amine]	D (D = 76-100% inhibition)	25 to 49%	
< 10 µM	Cc1c(-c2ccn(C)n2)cn2nc(-c3nccn3C)nc(Nc3ccc(N(C)C)cn3)c12 [Compound 227, N5,N5-Dimethyl-N2-(5-methyl-2-(1-methyl-1H-imidazol-2-yl)-6-(1-methyl-1H-pyrazol-3-yl)pyrrolo[2,1-f][1,2,4]triazin-4-yl)pyridine-2,5-diamine]	C (C = 46-75% inhibition)	50 to 74%	
10 to 30 µM	Cc1c(-c2ccn(C)n2)cn2nc(-c3nccn3C)nc(Nc3cc(N4CCOCC4)ccn3)c12 [Compound 222, 5-Methyl-2-(1-methyl-1H-imidazol-2-yl)-6-(1-methyl-1H-pyrazol-3-yl)-N-(4-morpholinopyridin-2-yl)pyrrolo[2,1-f][1,2,4]triazin-4-amine]	A* (A* = 1-25% activation)	0%	
